Test systems include CAKI-1 renal; EKVX NSCLC; HL-60(TB) leukemia; HS 578T breast; LOX IMVI melanoma; NCI-H226 lung; NCI-H460 lung; OVCAR-3 ovarian; SK-OV-3 ovarian; SNB-75 CNS.
Assay in all cases: NCI tumour cell line growth inhibition, 48 h

Data on ten compounds can be found in PubChem BioAssay (NCI).

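Step 1: Grow cells in 96-well plates. Step 2: Expose to compound for 48 hours at 5 concentrations. Step 3: Interpolate endpoints linearly; if unreached, use highest concentration. The concentration for 50% growth inhibition is given as GI50. TGI is the concentration that stops growth completely.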

For the compound `O=C(O)C(Br)C(Br)C(=O)O` (stereo not given), the TGI in the experiment on CAKI-1 renal, in the experiment on EKVX NSCLC, with HL-60(TB) leukemia, in the experiment with HS 578T breast, with LOX IMVI melanoma and with NCI-H226 lung was more than 100 µM throughout. In addition, the TGI with NCI-H460 lung, in the experiment with OVCAR-3 ovarian, with SK-OV-3 ovarian and with SNB-75 CNS was more than 100 µM throughout.
As for `CCC#CC[C@H](O)C/C=C1/C(=O)C=C[C@@H]1C/C=C\CCCC(=O)OC`, the GI50 in the experiment on CAKI-1 renal was 1.48 µM; in the experiment with EKVX NSCLC, 1.76 µM; in the experiment with HL-60(TB) leukemia, 1.31 µM; in the experiment with HS 578T breast, 4.3 µM; in the experiment on LOX IMVI melanoma, 0.754 µM; with NCI-H226 lung, 0.863 µM. Further, the GI50 is 1.31 µM in the experiment with NCI-H460 lung, 1.55 µM in the experiment with OVCAR-3 ovarian, 3.21 µM in the experiment on SK-OV-3 ovarian and 5.07 µM in the experiment with SNB-75 CNS. For the same compound, the TGI in the experiment with CAKI-1 renal came out at 4.65 µM; in the experiment with EKVX NSCLC it was 7.73 µM; in the experiment on HL-60(TB) leukemia, 3.91 µM; with HS 578T breast, 46.6 µM; in the experiment on LOX IMVI melanoma it was 1.54 µM; with NCI-H226 lung, 1.9 µM. For the same compound, the TGI with NCI-H460 lung worked out at 3.55 µM; in the experiment on OVCAR-3 ovarian it was 6.11 µM; in the experiment with SK-OV-3 ovarian, 10.2 µM; with SNB-75 CNS it was 13.4 µM.
Consider `COc1ccc(OC)c(NC(=O)c2cccc(NC3=C(Cl)C(=O)N(Cc4ccccc4)C3=O)c2)c1`, for which the GI50 was more than 100 µM with CAKI-1 renal; 2.49 µM with EKVX NSCLC; 5.82 µM in the experiment on HL-60(TB) leukemia; more than 100 µM in the experiment on HS 578T breast; more than 100 µM in the experiment on LOX IMVI melanoma; more than 67.3 µM in the experiment on NCI-H226 lung. Moreover, the GI50 is more than 58.1 µM in the experiment on NCI-H460 lung, more than 100 µM with OVCAR-3 ovarian, more than 100 µM with SK-OV-3 ovarian and more than 100 µM in the experiment on SNB-75 CNS. Moreover, the TGI in the experiment with CAKI-1 renal was more than 100 µM; in the experiment on EKVX NSCLC, 4.94 µM; in the experiment with HL-60(TB) leukemia, more than 100 µM; in the experiment with HS 578T breast, more than 100 µM; in the experiment on LOX IMVI melanoma, more than 100 µM; in the experiment with NCI-H226 lung, more than 100 µM. Also, the TGI in the experiment with NCI-H460 lung, in the experiment with OVCAR-3 ovarian, with SK-OV-3 ovarian and in the experiment with SNB-75 CNS was more than 100 µM each time.
In the case of `CC(CN1CC(=O)NC(=O)C1)N1CC(=O)NC(=O)C1` (stereo not given), the TGI in the experiment with CAKI-1 renal is more than 750 µM; in the experiment with EKVX NSCLC, more than 750 µM; in the experiment on HL-60(TB) leukemia, 690 µM; with HS 578T breast, more than 391 µM; in the experiment on LOX IMVI melanoma, more than 750 µM; with NCI-H226 lung, 505 µM. Also, the TGI in the experiment on NCI-H460 lung is more than 622 µM; in the experiment on OVCAR-3 ovarian, 701 µM; with SK-OV-3 ovarian, more than 672 µM; in the experiment on SNB-75 CNS, more than 715 µM.
For `Cc1cc(C(=O)Nc2cc(Oc3ccc4nc(NC(=O)C5CC5)cn4n3)ccc2C)n(C)n1`, the GI50 is more than 10 µM in the experiment with CAKI-1 renal; more than 10 µM in the experiment on EKVX NSCLC; 9.56 µM with HL-60(TB) leukemia; 7.48 µM with HS 578T breast; more than 10 µM in the experiment on LOX IMVI melanoma; 0.86 µM in the experiment with NCI-H226 lung. Moreover, the GI50 in the experiment on NCI-H460 lung, in the experiment on OVCAR-3 ovarian, with SK-OV-3 ovarian and with SNB-75 CNS was more than 10 µM in each case. For the same compound, the TGI in the experiment with CAKI-1 renal, with EKVX NSCLC, in the experiment with HL-60(TB) leukemia, with HS 578T breast, with LOX IMVI melanoma and in the experiment with NCI-H226 lung was more than 10 µM each time. Also, the TGI with NCI-H460 lung, with OVCAR-3 ovarian, with SK-OV-3 ovarian and in the experiment with SNB-75 CNS was more than 10 µM in each case.
With `CCN(CC)CCC(=O)OC1C(C)=CC(C)C(=O)CC(C(C)CC2CCC(O)C(OC)C2)OC(=O)C2CCCCN2C(=O)C(=O)[C@@]2(O)OC(CCC2C)CC(OC)\C(C)=C/C=C/C=C/C(C)CC(C)C(=O)C1OC` (stereo not given in full), the TGI in the experiment on CAKI-1 renal came to 21.5 µM; with EKVX NSCLC, 17.1 µM; with HL-60(TB) leukemia, 16 µM; in the experiment on HS 578T breast, 13.7 µM; in the experiment on LOX IMVI melanoma it was 19.2 µM; in the experiment with NCI-H226 lung, 26.8 µM. The TGI amounted to 23.8 µM with NCI-H460 lung, 23.5 µM with OVCAR-3 ovarian, 19.4 µM in the experiment on SK-OV-3 ovarian and 0.971 µM in the experiment with SNB-75 CNS.
For `O=C(O)CNc1ccc(Cl)c(Cl)c1`, the TGI in the experiment on CAKI-1 renal is 50.3 µM; in the experiment with EKVX NSCLC it was 64.8 µM; in the experiment with HL-60(TB) leukemia, 78.5 µM; with HS 578T breast, more than 100 µM; with LOX IMVI melanoma it was more than 100 µM; in the experiment on NCI-H226 lung, more than 100 µM. The TGI was 69.8 µM in the experiment with NCI-H460 lung, 82.4 µM in the experiment on OVCAR-3 ovarian, more than 100 µM with SK-OV-3 ovarian and 94.1 µM in the experiment with SNB-75 CNS.
Consider `CCOc1cc(C(=O)O)c2c(ccc3ccc(OC)c(OC)c32)c1OC`, for which the TGI with CAKI-1 renal, with EKVX NSCLC, in the experiment on HL-60(TB) leukemia, in the experiment with HS 578T breast, with LOX IMVI melanoma and with NCI-H226 lung was more than 100 µM throughout. For the same compound, the TGI in the experiment with NCI-H460 lung, in the experiment on OVCAR-3 ovarian, in the experiment on SK-OV-3 ovarian and in the experiment on SNB-75 CNS was more than 100 µM each time.
As for `Cc1c(N)nc([C@H](CC(N)=O)NC[C@H](N)C(N)=O)nc1C(=O)N[C@H](C(=O)N[C@H](C)[C@@H](O)CC(=O)N[C@H](C(=O)NC(O[C@@H]1O[C@@H](C)[C@@H](N)[C@@H](O)[C@H]1O)C(O)c1nc(-c2nc(C(=O)NCCCCN)cs2)cs1)[C@@H](C)O)[C@@H](O[C@@H]1O[C@@H](CO)[C@@H](O)[C@H](O)[C@@H]1O[C@H]1O[C@H](CO)[C@@H](O)[C@H](OC(N)=O)[C@@H]1O)c1c[nH]cn1` (stereo not given in full), the TGI with CAKI-1 renal, with EKVX NSCLC, in the experiment with HL-60(TB) leukemia, in the experiment on HS 578T breast, with LOX IMVI melanoma and with NCI-H226 lung was more than 50 µM in each case. Besides, the TGI in the experiment with NCI-H460 lung, in the experiment on OVCAR-3 ovarian, with SK-OV-3 ovarian and in the experiment on SNB-75 CNS was more than 50 µM each time.
As for `O=C1NC(O)c2ccccc2O1` (stereo not given), the TGI with CAKI-1 renal, in the experiment with EKVX NSCLC, in the experiment on HL-60(TB) leukemia, in the experiment with HS 578T breast, in the experiment on LOX IMVI melanoma and in the experiment with NCI-H226 lung was more than 100 µM in each case. The TGI in the experiment on NCI-H460 lung, in the experiment with OVCAR-3 ovarian, in the experiment on SK-OV-3 ovarian and with SNB-75 CNS was more than 100 µM throughout.
